# In patent US11192849B2, “Compounds, compositions, and methods for modulating ferroptosis and treating excitotoxic disorders” (THE TRUSTEES OF COLUMBIA UNIVERSITY IN THE CITY OF NEW YORK, priority 2013, dated 2021):
# Tests used:
# [1] = In vitro stability study in mouse plasma; type: in vitro ADME
# Method: The assay was conducted by incubating 1 μM of test compounds with Mouse Plasma (Strain […]) for a series of incubation times (0, 15, 30, 60, 120 minutes) at various temperatures (wet ice, room temperature, or 37° C.) with 5% CO2 and shaking (130 rpm). At each time point, the samples were quenched with 200 μL of stop solution containing an internal standard and kept on ice. The samples were analysed by LC-MS/MS.
# ERK phosphorylation = ERK phosphorylation Western blot in HT-1080 cells; type: cell-based, human
# Method: Cells were trypsinized, pelleted, and washed once in PBS. Cells were lysed for 20 minutes in buffer containing: 50 mM HEPES pH 7.4, 40 mM NaCl, 2 mM EDTA, 0.5% Triton X-100, 1.5 mM sodium orthovanadate, 50 mM NaF, 10 mM sodium pyrophosphate, 10 mM sodium ß-glycerophosphate, and protease inhibitor tablet (Roche, Nutley, N.J.). Unlysed cells and debris were pelleted for 10 minutes at 10,000 rpm in a benchtop microcentrifuge at 4° C., and the supernatant was removed and mixed with 5×SDS loading buffer. Samples were separated by SDS-polyacrylamide gel electrophoresis. Western transfer was performed using the iBlot system (Invitrogen). Membrane was blocked for 1 hour in Licor Odyssey Blocking Buffer (LI-COR) and incubated in primary antibody overnight at 4° C. Following three 5-minute washes in Tris-buffered saline (pH 7.4) with 1% Tween-20 (TBS-T), membrane was incubated with secondary antibodies for 45 minutes in the dark. The membrane was washed again in TBST for three 5-minute washes with protection from light and scanned using the Odyssey Imaging System (LI-COR). Antibodies used were as follows: rabbit anti-phospho p42/44 MAPK (Cell Signaling Technology, #9101) and rabbit anti-p42/44 MAPK (Cell Signaling Technology, #9102). The secondary antibody was IR dye 800CW goat anti-rabbit IgG (LI-COR).
# HT-1080 cells = test: Mitochondrial ROS (MitoSOX) in HT-1080 cells; type: cell-based, human; settings: rotenone 250 nM, 3 hr, Fer-1 1 μM
# Method: 200,000 HT-1080 cells were seeded into 6-well dishes (Corning). The next day, cells were treated with +/−rotenone +/−ferrostatin-1 for 3 hours (for MitoSOX experiments) or +/−STS +/−ferrostatin-1 for 4 hours (for 10-N-nonylacridine orange [NAO] experiments), harvested by trypsinization and analyzed as follows. For the analysis of mitochondrial ROS, cells were incubated with 5 μM MitoSOX (Molecular Probes/Invitrogen) in HBSS for 10 minutes in the dark at 37° C. […] MitoSOX data were collected in the FL2 channel and NAO data was collected in the FL1 channel. Data are from three independent biological replicates of each experiment. Data were analyzed by one-way ANOVA with Bonferroni's post-hoc test.
# A minimum of 10,000 cells were analyzed per condition.
# [2] = tested on: mice, IRI of the cremaster muscle; test: In vivo microscopy on the postischemic cremaster muscle; parameters: species or system mouse
# Method: The surgical preparation of the cremaster muscle was performed as originally described by Baez with minor modifications (Traykova-Brauch et al., 2008; Mulay et al., 2013). Mice were anesthetized using a ketamine/xylazine mixture (100 mg/kg ketamine and 10 mg/kg xylazine), administrated by i.p. injection. The left femoral artery was cannulated in a retrograde manner for administration of microspheres and drugs. The right cremaster muscle was exposed through a ventral incision of the scrotum. The muscle was opened ventrally in a relatively avascular zone, using careful electrocautery to stop any bleeding, and spread over the transparent pedestal of a custom-made microscopic stage. Epididymis and testicle were detached from the cremaster muscle and placed into the abdominal cavity. Throughout the procedure as well as after surgical preparation during in vivo microscopy, the muscle was superfused with warm-buffered saline.
# The setup for in vivo microscopy was centered around equipment for stroboscopic fluorescence epiillumination microscopy. […] Microscopy images were obtained with Olympus water immersion lenses (20×/numerical aperture (N.A.) 0.5 and 10×/N.A. 0.3) and recorded with an analog black-and-white charge-coupled device (CCD) video camera (Cohu 4920; Cohu) and an analog video recorder (AG-7350-E; Panasonic). […] For measurement of centerline blood flow velocity, green fluorescent microspheres (2-μm diameter; Molecular Probes) were injected via the femoral artery catheter, and their passage through the vessels of interest was recorded using the FITC filter cube under appropriate stroboscopic illumination (exposure, 1 ms; cycle time, 10 ms; length of the electromagnetic wave, 488 nm), integrating video images for sufficient time (>80 ms) to allow for the recording of several images of the same bead on one frame. […]
smiles,measurement,setting,value
"CCOC(=O)c1ccc(NC2CCCCC2)c(N)c1 [SRS8-28 (Fer-1), ethyl 3-amino-4-(cyclohexylamino)benzoate]",mouse plasma stability,[1],poor plasma stability
same,ERK phosphorylation,ERK phosphorylation,did not inhibit ERK phosphorylation
same,accumulation of mitochondrial superoxide in response to rotenone,HT-1080 cells,did not prevent
same,leukocyte adherence,[2]; 1 h and 2 h after onset of reperfusion,remains unchanged
same,leukocyte transmigration,[2]; ferrostatin-1 2 mg/kg i.p.,Significantly reduced
same,leukocyte rolling,[2]; within the first hour after reperfusion,is affected
